The record followed here is ChEMBL document CHEMBL5715956, “Selective Targeting of Bromodomains of the Bromodomain-PHD Fingers Family Impairs Osteoclast Differentiation” (ACS Chem Biol, 2017).

The target of data set [1] is ATPase family AAA domain-containing protein 2 (Homo sapiens) (UniProt Q6PL18). Particulars: dose 10.0 µM.
Data set [2] has as its target Adrenergic receptor alpha-2 (Homo sapiens) (UniProt P08913+P18825+P18089). Briefly: Binding affinity to Alpha 2 receptor (unknown origin) assessed as specific binding at 10 uM relative to control. The class given is protein assay.
For data set [3], the target named is KV channel (voltage-gated potassium channel family) (Homo sapiens, UniProt O43525+O43526+O95259+P16389+P17658+P22001+P22459+P22460+P48547+P51787+P56696+Q03721+Q09470+Q12809+Q14003+Q14721+Q16322+Q6PIU1+Q8NCM2+Q8TAE7+Q8TDN1+Q8TDN2+Q92953+Q96KK3+Q96L42+Q96PR1+Q96RP8+Q9BQ31+Q9H252+Q9H3M0+Q9NR82+Q9NS40+Q9NSA2+Q9NZV8+Q9UIX4+Q9UJ96+Q9UK17+Q9ULD8+Q9ULS6+Q9UQ05). The data set can be described thus: Inhibition of KV channel (unknown origin) at 10 uM relative to control. The class given is protein assay.

In data set [4] the target is Bromodomain-containing protein 3 (Homo sapiens) (UniProt Q15059). Particulars: dose 10.0 µM.
Chain of Bromodomain-containing protein 3 (Homo sapiens) (Q15059 2-726 limits assumed): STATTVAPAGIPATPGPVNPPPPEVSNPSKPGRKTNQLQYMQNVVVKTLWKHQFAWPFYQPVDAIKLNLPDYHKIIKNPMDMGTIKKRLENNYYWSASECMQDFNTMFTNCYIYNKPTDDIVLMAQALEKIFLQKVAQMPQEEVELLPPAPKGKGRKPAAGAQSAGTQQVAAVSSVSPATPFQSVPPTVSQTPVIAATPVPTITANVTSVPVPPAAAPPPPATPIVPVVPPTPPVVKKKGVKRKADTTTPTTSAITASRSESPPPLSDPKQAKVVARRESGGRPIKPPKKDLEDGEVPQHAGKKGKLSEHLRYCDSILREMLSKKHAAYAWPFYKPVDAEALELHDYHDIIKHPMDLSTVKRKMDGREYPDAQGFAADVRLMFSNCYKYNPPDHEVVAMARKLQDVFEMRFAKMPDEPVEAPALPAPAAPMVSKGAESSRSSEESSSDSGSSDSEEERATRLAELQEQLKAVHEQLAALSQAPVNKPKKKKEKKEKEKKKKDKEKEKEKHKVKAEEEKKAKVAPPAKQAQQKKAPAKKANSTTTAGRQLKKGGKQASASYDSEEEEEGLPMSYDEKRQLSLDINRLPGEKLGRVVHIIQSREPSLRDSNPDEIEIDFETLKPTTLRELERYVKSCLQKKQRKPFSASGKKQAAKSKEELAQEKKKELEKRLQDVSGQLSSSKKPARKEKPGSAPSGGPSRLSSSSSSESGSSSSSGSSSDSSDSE
Data set [5] addresses T1, Bromodomain-containing protein 1 (Homo sapiens) (UniProt O95696).
T1 sequence (whole entry): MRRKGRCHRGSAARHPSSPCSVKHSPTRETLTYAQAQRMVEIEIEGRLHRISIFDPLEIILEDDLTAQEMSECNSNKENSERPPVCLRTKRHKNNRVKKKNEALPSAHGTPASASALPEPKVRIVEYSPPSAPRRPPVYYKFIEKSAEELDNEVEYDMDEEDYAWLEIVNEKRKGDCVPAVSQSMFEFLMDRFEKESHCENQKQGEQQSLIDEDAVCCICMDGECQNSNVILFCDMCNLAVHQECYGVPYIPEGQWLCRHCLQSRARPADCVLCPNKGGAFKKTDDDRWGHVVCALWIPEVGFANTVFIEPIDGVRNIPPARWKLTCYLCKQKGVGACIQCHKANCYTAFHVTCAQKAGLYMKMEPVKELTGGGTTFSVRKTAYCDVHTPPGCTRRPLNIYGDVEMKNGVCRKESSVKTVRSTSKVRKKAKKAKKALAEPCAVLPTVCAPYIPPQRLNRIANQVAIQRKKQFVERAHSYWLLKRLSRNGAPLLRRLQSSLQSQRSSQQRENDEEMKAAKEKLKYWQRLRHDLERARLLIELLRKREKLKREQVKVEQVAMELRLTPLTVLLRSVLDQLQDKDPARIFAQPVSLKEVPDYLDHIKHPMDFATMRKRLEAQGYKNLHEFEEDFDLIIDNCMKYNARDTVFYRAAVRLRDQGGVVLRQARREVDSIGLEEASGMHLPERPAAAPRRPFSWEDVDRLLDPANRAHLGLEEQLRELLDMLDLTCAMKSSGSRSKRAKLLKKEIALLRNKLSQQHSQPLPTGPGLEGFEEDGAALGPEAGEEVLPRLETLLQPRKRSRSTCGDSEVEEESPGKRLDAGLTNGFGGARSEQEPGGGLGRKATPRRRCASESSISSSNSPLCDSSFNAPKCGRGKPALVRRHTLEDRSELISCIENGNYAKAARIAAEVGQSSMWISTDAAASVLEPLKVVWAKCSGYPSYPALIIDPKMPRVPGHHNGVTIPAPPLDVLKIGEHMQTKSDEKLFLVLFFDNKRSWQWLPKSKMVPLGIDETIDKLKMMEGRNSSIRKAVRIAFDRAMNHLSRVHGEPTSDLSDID
The data set can be described thus: Binding affinity to BRPF2 (unknown origin) assessed as change in gibbs free energy at 12 uM by Isothermal titration calorimetry. For orientation: ITC needs no label: the signal is the heat of the interaction.

The species entered for data set [6] is Homo sapiens. Particulars: dose 10.0 µM.
The species named for data set [7] is Homo sapiens. The following applies: dose 10.0 µM. The source holds these as a separate data set.
Data set [8] is filed under the species Homo sapiens. Particulars: dose 10.0 µM. This is another data set of the same source.
Data set [9] deals with Nucleosome-remodeling factor subunit BPTF (Homo sapiens) (UniProt Q12830). The following applies: dose 10.0 µM.
Data set [10] deals with Protein polybromo-1 (Homo sapiens) (UniProt Q86U86). Particulars: dose 10.0 µM.
Data set [11] has as its target Bromodomain-containing protein 4 (Homo sapiens) (UniProt O60885). The data set can be described thus: Binding affinity to BRD4 BD1 (unknown origin) assessed as change in enthalpy at 14 uM by Isothermal titration calorimetry.
In data set [12] the target is Histone acetyltransferase KAT2A (Homo sapiens) (UniProt Q92830). Particulars: dose 10.0 µM.
Chain of Histone acetyltransferase KAT2A (Homo sapiens) (Q92830 2-837 limits assumed): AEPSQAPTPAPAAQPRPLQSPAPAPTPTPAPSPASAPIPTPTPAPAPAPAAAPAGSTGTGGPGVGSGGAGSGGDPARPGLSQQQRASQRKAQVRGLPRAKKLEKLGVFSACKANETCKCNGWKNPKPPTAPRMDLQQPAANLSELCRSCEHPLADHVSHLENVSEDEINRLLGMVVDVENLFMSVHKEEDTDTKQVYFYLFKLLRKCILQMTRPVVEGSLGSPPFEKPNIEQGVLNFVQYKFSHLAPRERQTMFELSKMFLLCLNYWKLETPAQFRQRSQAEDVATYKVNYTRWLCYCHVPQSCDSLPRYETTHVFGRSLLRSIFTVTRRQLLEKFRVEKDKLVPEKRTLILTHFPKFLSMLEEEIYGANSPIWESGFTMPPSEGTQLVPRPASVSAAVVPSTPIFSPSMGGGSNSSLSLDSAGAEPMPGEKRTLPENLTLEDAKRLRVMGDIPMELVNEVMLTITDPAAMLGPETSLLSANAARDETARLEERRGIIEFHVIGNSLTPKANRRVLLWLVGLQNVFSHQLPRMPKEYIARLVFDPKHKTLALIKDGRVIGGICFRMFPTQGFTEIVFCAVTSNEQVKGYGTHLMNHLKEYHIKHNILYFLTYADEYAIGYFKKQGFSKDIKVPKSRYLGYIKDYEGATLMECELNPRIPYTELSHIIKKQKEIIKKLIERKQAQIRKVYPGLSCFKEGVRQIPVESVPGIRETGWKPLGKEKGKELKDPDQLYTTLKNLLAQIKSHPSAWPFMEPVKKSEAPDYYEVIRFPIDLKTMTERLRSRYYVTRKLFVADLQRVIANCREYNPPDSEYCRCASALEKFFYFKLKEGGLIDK
Data set [13] deals with Bromodomain-containing protein 4 (Homo sapiens) (UniProt O60885). Particulars: dose 10.0 µM.
Data set [14] has as its target Transcription initiation factor TFIID subunit 1 (Homo sapiens) (UniProt P21675). The following applies: dose 10.0 µM.

Molecules are shown by their SMILES.

Chain of ATPase family AAA domain-containing protein 2 (Homo sapiens) (Q6PL18 whole entry, the tested form may be a part): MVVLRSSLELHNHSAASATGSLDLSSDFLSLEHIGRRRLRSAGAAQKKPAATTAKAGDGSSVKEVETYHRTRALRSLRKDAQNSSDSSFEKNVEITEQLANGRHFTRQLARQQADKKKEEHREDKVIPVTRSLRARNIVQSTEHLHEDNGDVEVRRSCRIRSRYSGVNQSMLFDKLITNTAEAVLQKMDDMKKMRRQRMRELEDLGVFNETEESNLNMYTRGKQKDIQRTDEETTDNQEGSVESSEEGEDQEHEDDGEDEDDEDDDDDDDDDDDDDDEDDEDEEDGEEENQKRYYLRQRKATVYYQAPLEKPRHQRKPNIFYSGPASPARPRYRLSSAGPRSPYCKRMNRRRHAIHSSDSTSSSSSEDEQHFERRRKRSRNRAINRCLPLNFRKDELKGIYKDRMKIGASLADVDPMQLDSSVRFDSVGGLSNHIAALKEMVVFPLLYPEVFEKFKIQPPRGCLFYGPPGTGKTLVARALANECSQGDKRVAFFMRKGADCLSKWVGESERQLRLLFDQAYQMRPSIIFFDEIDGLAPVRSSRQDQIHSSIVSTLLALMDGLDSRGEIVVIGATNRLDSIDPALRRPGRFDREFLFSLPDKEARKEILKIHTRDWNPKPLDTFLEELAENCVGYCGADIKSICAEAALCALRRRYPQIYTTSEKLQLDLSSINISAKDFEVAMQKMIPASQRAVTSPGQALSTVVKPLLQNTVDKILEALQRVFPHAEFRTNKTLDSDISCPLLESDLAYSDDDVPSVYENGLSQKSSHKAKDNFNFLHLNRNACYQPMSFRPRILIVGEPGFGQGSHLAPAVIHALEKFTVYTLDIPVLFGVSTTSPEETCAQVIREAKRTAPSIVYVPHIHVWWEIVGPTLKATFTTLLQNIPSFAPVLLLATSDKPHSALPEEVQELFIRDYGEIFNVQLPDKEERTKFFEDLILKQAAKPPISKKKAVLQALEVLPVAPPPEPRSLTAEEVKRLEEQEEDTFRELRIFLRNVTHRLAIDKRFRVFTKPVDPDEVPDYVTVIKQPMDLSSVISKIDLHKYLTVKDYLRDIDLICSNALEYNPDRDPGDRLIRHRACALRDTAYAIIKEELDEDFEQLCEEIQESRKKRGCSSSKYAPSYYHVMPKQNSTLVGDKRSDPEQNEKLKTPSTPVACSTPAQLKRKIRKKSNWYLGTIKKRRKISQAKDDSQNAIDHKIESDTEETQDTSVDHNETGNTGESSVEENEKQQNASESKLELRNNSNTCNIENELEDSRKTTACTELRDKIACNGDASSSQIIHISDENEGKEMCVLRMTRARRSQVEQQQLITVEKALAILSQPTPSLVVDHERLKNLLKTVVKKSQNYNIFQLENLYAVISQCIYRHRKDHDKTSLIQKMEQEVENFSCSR
Chain of Transcription initiation factor TFIID subunit 1 (Homo sapiens) (P21675 whole entry): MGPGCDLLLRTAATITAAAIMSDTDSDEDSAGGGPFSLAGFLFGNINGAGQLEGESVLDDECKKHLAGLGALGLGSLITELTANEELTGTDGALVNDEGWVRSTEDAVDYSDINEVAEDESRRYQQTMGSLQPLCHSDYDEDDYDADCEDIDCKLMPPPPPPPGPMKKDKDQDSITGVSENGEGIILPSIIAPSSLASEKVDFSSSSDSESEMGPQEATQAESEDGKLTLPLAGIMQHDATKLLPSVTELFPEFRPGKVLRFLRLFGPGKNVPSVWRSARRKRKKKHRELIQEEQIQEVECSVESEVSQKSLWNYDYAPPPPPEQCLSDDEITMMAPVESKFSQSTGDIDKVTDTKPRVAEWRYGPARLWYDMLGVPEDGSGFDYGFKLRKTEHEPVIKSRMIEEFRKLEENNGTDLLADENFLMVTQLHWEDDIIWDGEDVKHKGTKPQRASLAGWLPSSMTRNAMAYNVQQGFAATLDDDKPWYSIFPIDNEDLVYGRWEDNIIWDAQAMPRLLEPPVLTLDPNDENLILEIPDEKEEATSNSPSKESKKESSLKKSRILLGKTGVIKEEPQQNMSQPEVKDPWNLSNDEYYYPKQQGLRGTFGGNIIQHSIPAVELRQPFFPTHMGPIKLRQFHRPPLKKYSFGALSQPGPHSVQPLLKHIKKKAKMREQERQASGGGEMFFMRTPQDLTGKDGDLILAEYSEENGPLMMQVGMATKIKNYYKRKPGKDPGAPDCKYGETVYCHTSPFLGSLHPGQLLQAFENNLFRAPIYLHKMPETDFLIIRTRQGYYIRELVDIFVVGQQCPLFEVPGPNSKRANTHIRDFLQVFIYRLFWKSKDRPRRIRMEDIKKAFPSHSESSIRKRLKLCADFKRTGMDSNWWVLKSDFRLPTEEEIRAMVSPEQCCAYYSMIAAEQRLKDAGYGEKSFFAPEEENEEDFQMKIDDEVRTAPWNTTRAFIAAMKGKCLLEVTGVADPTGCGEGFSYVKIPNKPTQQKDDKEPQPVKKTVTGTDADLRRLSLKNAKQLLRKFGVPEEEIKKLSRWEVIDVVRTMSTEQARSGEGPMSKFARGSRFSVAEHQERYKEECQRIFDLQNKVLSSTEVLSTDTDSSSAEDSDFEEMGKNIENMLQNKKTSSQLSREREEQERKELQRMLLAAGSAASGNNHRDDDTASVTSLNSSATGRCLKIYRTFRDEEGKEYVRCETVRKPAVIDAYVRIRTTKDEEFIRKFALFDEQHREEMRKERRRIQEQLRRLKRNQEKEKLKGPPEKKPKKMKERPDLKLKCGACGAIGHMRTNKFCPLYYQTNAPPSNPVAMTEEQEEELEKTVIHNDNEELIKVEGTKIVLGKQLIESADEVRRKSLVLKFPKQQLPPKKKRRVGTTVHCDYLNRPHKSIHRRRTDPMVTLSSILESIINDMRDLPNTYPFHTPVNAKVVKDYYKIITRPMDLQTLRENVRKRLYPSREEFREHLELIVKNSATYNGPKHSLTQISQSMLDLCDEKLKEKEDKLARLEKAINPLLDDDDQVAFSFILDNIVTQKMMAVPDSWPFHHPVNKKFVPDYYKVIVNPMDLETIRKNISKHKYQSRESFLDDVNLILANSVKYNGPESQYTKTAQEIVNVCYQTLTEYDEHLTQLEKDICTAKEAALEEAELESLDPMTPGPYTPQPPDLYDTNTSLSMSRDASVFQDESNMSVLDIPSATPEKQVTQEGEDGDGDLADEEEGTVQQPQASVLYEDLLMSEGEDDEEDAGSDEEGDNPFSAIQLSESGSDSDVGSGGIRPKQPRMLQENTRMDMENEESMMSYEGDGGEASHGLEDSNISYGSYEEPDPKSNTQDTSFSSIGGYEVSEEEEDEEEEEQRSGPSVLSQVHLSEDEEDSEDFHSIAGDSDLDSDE

As for `COc1cc2c(cc1NS(=O)(=O)c1ccc(Br)cc1C)n(C)c(=O)n2C`, the ΔTm in [1] stood at 0.14 °C; in data set [4], 1.6 °C; in the data set filed under Homo sapiens [6] it was 0.5 °C; in the data set filed under Homo sapiens [7], 3.3 °C; in the data set listed under Homo sapiens [8], 0.2 °C; in data set [9] it was 0.9 °C. Also, the ΔTm in data set [10] was 0.4 °C; in data set [12], -0.4 °C; in [13] it was 2 °C; in data set [14] it was 0.2 °C. In data set [2], the Activity is 112%. Also, the inhibition at 10 µM in data set [3] is -18%. In [5], the deltaG is -8.3 kcal/mol. For the same compound, the deltaH in data set [11] was -6.93 kcal/mol.

As usually defined, the ΔTm is the change in melting temperature against a reference sample. One may read the inhibition as the relative decrease from the control value, in per cent.
